Values of other authors as cited in patent publication US8231899B2, “Quick release pharmaceutical compositions of drug substances” (Nycomed Danmark ApS, priority 1998, dated 2012).

What was measured:
[1] = room temperature

solubility in water and 0.1 N HCl [1] | pKa value | solubility at a pH corresponding to 0.1 N HCl [1] | Structure (SMILES)
practically insoluble |  |  | CC(=O)Oc1ccccc1C(=O)O [acetylsalicylic acid]
practically insoluble |  |  | COc1ccc2c(c1)c(CC(=O)O)c(C)n2C(=O)c1ccc(Cl)cc1 [indometacin]
 | about 4.7 | less than 1 mg 100 ml | CN1C(C(=O)Nc2ccccn2)=C(O)c2sc(Cl)cc2S1(=O)=O [lornoxicam]
